Test results from patent US20050065114A1, “Therapeutical treatment with oligo-beta- (1,3) -glucans, drugs used in said treatment” (priority 2003, published 2005).

Test system: TNF-alpha
Assay: Cytokine level in peripheral blood: TNF-alpha in serum by OptEIA Mouse TNF-alpha ELISA
Format: in vivo, Balb/c mice
Method: Balb/c mice were intraperitoneally injected with 50 μg of Laminaritetraose, Laminaripentaose, Laminarin or Lentinan (purchased from NIH, Bethesda, Md., USA) in PBS.
After various time intervals (30, 60 and 90 minutes, respectively), after the injection of Laminaritetraose, Laminaripentaose, Laminarin, Lentinan only, the mice were killed and blood was collected in Eppendorf tubes.
Subsequently, the serum of the collected blood was separated, collected and stored at −80° C. for no more than 1 week.
The level of TNF-alpha in the serum samples was evaluated using a commercial kit marketed as OptEIA Mouse TNF-alpha (Mono/Mono) Set by the Company Pharmingen, San Diego, Calif., USA); the manufacturer's instructions were followed.
In connection with the experiments carried out by Applicants, Balb/c mice were intraperitoneally injected with various doses (50, 100, and 250 μg) of Soluble laminarin and Lentinan (from NIH, Bethesda, Md., USA) in PBS.
Control mice were treated with PBS only. […]
Subsequently, the serum was prepared, collected and stored at −80° C. for no more than 1 week.
The level of TNF-alpha in serum samples was evaluated using a commercial kit marketed as OptEIA Mouse TNF-alpha (Mono/Mono) Set by the Company Pharmingen, San Diego, Calif., USA); the manufacturer's instructions were followed.
In that respect, The wells of 96-well plates were coated with 0.1 ml/well of capture antibody (provided in the above kit) diluted in coating buffer (also provided in the above kit); the expression “capture antibody” designates first antibody used for coating of wells; this antibody captures the tested cytokines from the solution; in this assay it was anti-mouse-TNF-alpha monoclonal antibody.
The plates were sealed and incubated overnight at 4° C.
Individual wells were emptied by aspiration and washed 3 times with over 300 el/well of wash buffer (also provided in the kit).
Reaction was blocked with 200 el/well of assay dilutant diluent (also provided in the kit) and by incubation for 60 minutes at room temperature.
Again, individual wells were emptied by aspiration and washed 3 times with over 300 el/well of the same wash buffer.
Standards (also provided in the kit) and samples of serum were diluted in assay diluent (also provided in the kit) and pipetted (100 μl/well) in appropriate wells; as far as the dissolution rate is concerned standards (part of the kit) were diluted according to the instructions into following concentrations: 1000 pg/ml, 500 pg/ml, 250, 125, 62.5, 31.3, and 15.6 pg/ml.
The plates were sealed and incubated for 60 minutes at room temperature. Individual wells were aspirated and washed 3 times with over 300 μl/well of the same wash buffer. A quantity of 100 μl/well of a working detector (antibody-avidin-HRP conjugate also provided in the kit) was added into each well.
The plates were sealed with plastic foils and incubated for 60 minutes at room temperature. Individual wells were emptied by aspiration and washed 3 times with over 300 μl/well of same wash buffer.
A quantity of 100 μl/well of substrate solution (also provided in the kit) was added to each well and the plates were incubated for 30 minutes in the dark at room temperature; “substrate solution” is formed by mixing a substrate reagent A containing hydrogen peroxide and Substrate reagent B containing 3,3′,5,5′-tetramethylbenzidine in organic solvent; when mixed together, the reagent reacts with peroxidase-labeled conjugates to develop a blue color.
A quantity of 50 μl/well of stop solution provided in the kit and adapted to stop the reaction was added to each well and the optical density was determined using a STL ELISA reader (marketed by Tecan U.S., Research Triangle Park, N.C.) at 450 nm with a correction at 570 nm.
The concentration of TNF-alpha, in pg/ml, in the blood of the mice treated as hereabove disclosed has been determined at the following moments: 30, 60 and 90 minutes after the injection of Laminaritetraose, Laminaripentaose, Lentinan and control. […]

Substance: Lentinan [reference compound]
- Concentration of TNF alpha in blood of treated mice (50 μg/mouse i.p., 30 min): 20 pg/mL
- Concentration of TNF alpha in blood of treated mice (50 μg/mouse i.p., 60 min): 15.7 pg/mL
- Concentration of TNF alpha in blood of treated mice (50 μg/mouse i.p., 90 min): 32.0 pg/mL
- Concentration of TNF alpha in blood of treated mice (100 μg/mouse i.p., 30 min): 28 pg/mL
- Concentration of TNF alpha in blood of treated mice (100 μg/mouse i.p., 60 min): 30.7 pg/mL
- Concentration of TNF alpha in blood of treated mice (100 μg/mouse i.p., 90 min): 20.3 pg/mL
- Concentration of TNF alpha in blood of treated mice (250 μg/mouse i.p., 30 min): 86.3 pg/mL
- Concentration of TNF alpha in blood of treated mice (250 μg/mouse i.p., 60 min): 68.7 pg/mL
- Concentration of TNF alpha in blood of treated mice (250 μg/mouse i.p., 90 min): 48.6 pg/mL
